Measured values as given in ChEMBL document CHEMBL4811282, “Synthesis and biological evaluation of novel 2-alkoxycarbonylallylester phosphonium derivatives as potential anticancer agents” (Bioorg Med Chem Lett, 2021).
Activity calls are given as the source filed them. The rule behind the calls is not given here.

What was measured:
MCF7 [1] = experiment: Antiproliferative activity against human MCF7 cells assessed as inhibition of cell proliferation measured by MTT assay; type: functional, cell-based
MIA PaCa-2 [2] = experiment: Antiproliferative activity against human MIA PaCa-2 cells assessed as inhibition of cell proliferation measured by MTT assay; type: functional, cell-based
4T1 [3] = experiment: Antiproliferative activity against mouse 4T1 cells assessed as inhibition of cell proliferation measured by MTT assay; type: functional, cell-based
MDA-MB-231 [4] = experiment: Antiproliferative activity against human MDA-MB-231 cells assessed as inhibition of cell proliferation measured by MTT assay; type: functional, cell-based
WiDr [5] = experiment: Antiproliferative activity against human WiDr cells assessed as inhibition of cell proliferation measured by MTT assay; type: functional, cell-based
[6] = Antiproliferative activity against mouse 67NR cells assessed as inhibition of cell proliferation measured by SRB assay; type: functional, cell-based
4T1 [7] = experiment: Antiproliferative activity against mouse 4T1 cells assessed as inhibition of cell proliferation measured by SRB assay; type: functional, cell-based
MDA-MB-231 [8] = experiment: Antiproliferative activity against human MDA-MB-231 cells assessed as inhibition of cell proliferation measured by SRB assay; type: functional, cell-based
WiDr [9] = experiment: Antiproliferative activity against human WiDr cells assessed as inhibition of cell proliferation measured by SRB assay; type: functional, cell-based
[10] = Antiproliferative activity against mouse 67NR cells assessed as inhibition of cell proliferation measured by MTT assay; type: functional, cell-based
MCF7 [11] = experiment: Antiproliferative activity against human MCF7 cells assessed as inhibition of cell proliferation measured by SRB assay; type: functional, cell-based
MIA PaCa-2 [12] = experiment: Antiproliferative activity against human MIA PaCa-2 cells assessed as inhibition of cell proliferation measured by SRB assay; type: functional, cell-based
4T1 [13] = experiment: Induction of mitochondrial stress in mouse 4T1 cells assessed as decrease in ATP production in presence of oligomycin/FCCP/antimycin A/rotenone by seahorse XFe96 analyser based assay; type: functional, cell-based; settings: dose 0.625-10 µM
4T1 [14] = experiment: Induction of mitochondrial stress in mouse 4T1 cells assessed as effect on spare respiratory capacity at 5 to 10 uM in presence of oligomycin/FCCP/antimycin A/rotenone by seahorse XFe96 analyser based assay; type: functional, cell-based; settings: dose 5-10 µM
MDA-MB-231 [15] = experiment: Induction of mitochondrial stress in human MDA-MB-231 cells assessed as decrease in mitochondrial respiration at 0.625 to 10 uM in presence of oligomycin/FCCP/antimycin A/rotenone by seahorse XFe96 analyser based assay; type: functional, cell-based; settings: dose 0.625-10 µM
4T1 [16] = experiment: Induction of mitochondrial stress in mouse 4T1 cells assessed as proton leak across mitochondrial inner membrane in presence of oligomycin/FCCP/antimycin A/rotenone by seahorse XFe96 analyser based assay; type: functional, cell-based; settings: dose 0.625-10 µM
MDA-MB-231 [17] = experiment: Induction of mitochondrial stress in human MDA-MB-231 cells assessed as decrease in ATP production at 0.3125 to 10 uM in presence of oligomycin/FCCP/antimycin A/rotenone by seahorse XFe96 analyser based assay; type: functional, cell-based; settings: dose 0.3125-10 µM
MDA-MB-231 [18] = experiment: Induction of mitochondrial stress in human MDA-MB-231 cells assessed as proton leak across mitochondrial inner membrane in presence of oligomycin/FCCP/antimycin A/rotenone by seahorse XFe96 analyser based assay; type: functional, cell-based; settings: dose 0.3125-10 µM
4T1 [19] = experiment: Induction of mitochondrial stress in mouse 4T1 cells assessed as decrease in mitochondrial respiration in presence of oligomycin/FCCP/antimycin A/rotenone by seahorse XFe96 analyser based assay; type: functional, cell-based; settings: dose 0.625-10 µM
[20] = Cytotoxicity against human HDFa cells assessed as inhibition of cell proliferation; type: cell-based
[21] = Toxicity against CD-1 mouse assessed as changes in grooming pattern at 10 mg/kg for 6 days per week measured after 14 days; type: organism-based; settings: in vivo, 336 h, time 14 day
[22] = Toxicity against CD-1 mouse assessed as changes in body weight at 10 mg/kg for 6 days per week measured after 14 days; type: organism-based; settings: in vivo

Row | IC50 (MCF7 [1]) [µM] | IC50 (MIA PaCa-2 [2]) [µM] | IC50 (4T1 [3]) [µM] | IC50 (MDA-MB-231 [4]) [µM] | SMILES | IC50 (WiDr [5]) [µM] | IC50 [10] [µM] | further results
1 | 1.37 | 0.59 | 0.98 | 3.01 | COC(=O)/C(=C/c1ccc(Cl)cc1)C[P+](c1ccc(OC)cc1)(c1ccc(OC)cc1)c1ccc(OC)cc1 | 1.32 | – | –
2 | 1.24 | 0.73 | 1.21 | 1.91 | COC(=O)/C(=C/c1ccc(Br)cc1)C[P+](c1ccc(OC)cc1)(c1ccc(OC)cc1)c1ccc(OC)cc1 | 0.9 | 2.9 | IC50 [6]: 1.78 µM; IC50 (4T1 [7]): 1.25 µM; IC50 (MDA-MB-231 [8]): 0.94 µM; IC50 (WiDr [9]): 0.81 µM; IC50 (MCF7 [11]): 0.17 µM; IC50 (MIA PaCa-2 [12]): 0.29 µM
3 | > 100 | > 100 | > 100 | > 100 | C=C(C[P+](c1ccccc1)(c1ccccc1)c1ccccc1)C(=O)N(C)C | 81.2 | > 100 | –
4 | 2.67 | 4.59 | 7.2 | 9.27 | COC(=O)/C(=C/c1ccccc1)C[P+](c1ccc(OC)cc1)(c1ccc(OC)cc1)c1ccc(OC)cc1 | 2.74 | 4.87 | –
5 | 2.78 | 3.6 | 1.85 | 4.87 | C=C(C[P+](c1ccc(OC)cc1)(c1ccc(OC)cc1)c1ccc(OC)cc1)C(=O)OC | 1.62 | 10.6 | –
6 | 0.64 | 0.36 | 0.86 | 2.1 | COc1ccc([P+](C/C(=C\c2ccc(Br)cc2)C(=O)OC(C)(C)C)(c2ccc(OC)cc2)c2ccc(OC)cc2)cc1 | 0.95 | 0.62 | IC50 [6]: 0.47 µM; IC50 (4T1 [7]): 0.5 µM; IC50 (MDA-MB-231 [8]): 0.58 µM; IC50 (WiDr [9]): 0.14 µM; Activity (4T1 [13]): Dose-Dependent Effect; Activity (4T1 [14]): Active; Activity (MDA-MB-231 [15]): Active; Activity (4T1 [16]): Dose-Dependent Effect; Activity (MDA-MB-231 [17]): Active; Activity (MDA-MB-231 [18]): Dose-Dependent Effect; IC50 (MCF7 [11]): 0.063 µM; Activity (4T1 [19]): Dose-Dependent Effect; IC50 (MIA PaCa-2 [12]): 0.2 µM; IC50 [20]: 5.5 µM
7 | 19.9 | 27.4 | 14.8 | 28.9 | C=C(C[P+](c1ccccc1)(c1ccccc1)c1ccccc1)C(=O)OC | 7.74 | 58.4 | –
8 | 2.43 | 2.66 | 1.78 | 3.79 | C=C(C[P+](c1ccc(C)cc1)(c1ccc(C)cc1)c1ccc(C)cc1)C(=O)OC | 1.48 | 5.34 | –
9 | 4.49 | 7.86 | 20.4 | 12.5 | COC(=O)/C(=C/c1ccc(C#N)cc1)C[P+](c1ccc(OC)cc1)(c1ccc(OC)cc1)c1ccc(OC)cc1 | 4.87 | > 100 | –
10 | 7.47 | 0.34 | 5.23 | 9.79 | COC(=O)/C(=C/c1ccc(C)cc1)C[P+](c1ccc(OC)cc1)(c1ccc(OC)cc1)c1ccc(OC)cc1 | 2.58 | 2.78 | –
11 | 1.99 | 2.87 | 2.76 | 2.88 | C=C(C[P+](c1ccccc1)(c1ccccc1)c1ccccc1)C(=O)OC(C)(C)C | 2.08 | 7.57 | –
12 | 0.98 | 1.39 | 1.08 | 2.69 | C=C(C[P+](c1ccc(OC)cc1)(c1ccc(OC)cc1)c1ccc(OC)cc1)C(=O)OC(C)(C)C | 0.81 | 2.17 | –
13 | 47 | 100 | 61.9 | 91.1 | C=C(C[P+](c1ccc(F)cc1)(c1ccc(F)cc1)c1ccc(F)cc1)C(=O)OC | 19 | 73.9 | –
14 | 1.42 | 1.29 | 4.57 | 7.41 | COC(=O)/C(=C/c1ccc(F)cc1)C[P+](c1ccc(OC)cc1)(c1ccc(OC)cc1)c1ccc(OC)cc1 | 2.14 | 5.14 | –
15 | 8.83 | 5.59 | 4.73 | 8.29 | COC(=O)/C(=C/c1ccc([N+](=O)[O-])cc1)C[P+](c1ccc(OC)cc1)(c1ccc(OC)cc1)c1ccc(OC)cc1 | 5.95 | 28.7 | –

Row | SMILES | IC50 (MCF7 [1]) [µM] | IC50 (MIA PaCa-2 [2]) [µM] | IC50 (4T1 [3]) [µM] | IC50 (MDA-MB-231 [4]) [µM] | IC50 (WiDr [5]) [µM] | IC50 [10] [µM] | further results
16 | COC(=O)/C(=C/c1ccc(OC)cc1)C[P+](c1ccc(OC)cc1)(c1ccc(OC)cc1)c1ccc(OC)cc1.[Br-] | 1.4 | 1.37 | 3.36 | 3.7 | 1.14 | 4.59 | IC50 [6]: 2.56 µM; IC50 (4T1 [7]): 1.83 µM; IC50 (MDA-MB-231 [8]): 2.19 µM; IC50 (WiDr [9]): 0.76 µM; Activity [21]: Non-Toxic; Activity [22]: Non-Toxic; IC50 (MCF7 [11]): 0.17 µM; IC50 (MIA PaCa-2 [12]): 0.31 µM; IC50 [20]: 23.9 µM
